Measured values taken from patent US20220273768A1 (The George Washington University, priority 2019, published 2022).
Where two headings read alike, the source gives them in different places.

Assays:
[1] = system: hypoglossal motoneurons (HGN); test: Excitatory post-synaptic currents in HGNs evoked by photoexcitation of ChR2 fibers from LepR^b+ neurons; assay type: cell-based, mouse
[2] = system: hypoglossal motoneurons (HGN); test: HGN firing per fictive inspiratory burst in bursting slice preparation; assay type: cell-based, mouse; settings: DAMGO 500 nM; then leptin 200 nM with DAMGO; prior to DAMGO 3-5
[3] = system: hypoglossal neurons (HGNs); test: Excitatory post-synaptic currents (EPSCs) recorded in vitro from HGNs; assay type: cell-based, mouse; settings: for spontaneous excitatory post-synaptic currents (EPSCs) in HGNs: FIG. 7, DAMGO then leptin added to DAMGO; for EPSC frequency in HGNs: FIG. 16, n=7, DAMGO focally applied, then 200 nM leptin co-infusion
DIO C57BL/6J mice [4] = system: DIO C57BL/6J mice
[5] = Plasma leptin levels after IN and IP leptin; assay type: in vivo, mouse; settings: IN leptin, 1, 3 and 6 hours vs baseline, n=4
Description: FIG. 18 depicts a graph showing plasma leptin levels measured 1, 3, and 6 hours after IN and IP leptin administrations, as compared to baseline, n=4, for each treatment. *p<0.05.

DIO C57BL/6J mice [6] = test: Sleep study (plethysmography) in diet-induced obese mice, mouse model of OSA; assay type: in vivo; settings: IN leptin 0.4 mg/kg single dose
lean C57BL/6J mice [7] = test: Blood pressure by telemetry during SC leptin infusion; assay type: in vivo, mouse
Description: Blood pressure was measured by telemetry (DSI) implanted in the left femoral artery of freely behaving lean C57BL/6J mice at baseline and during leptin infusion (120 μg/day for 3 days via a SC pump) before and after carotid body (CB) denervation or sham surgery.

lean C57BL/6J mice [8] = test: Barometric plethysmography during subcutaneous leptin infusion in lean mice; assay type: in vivo, mouse; settings: SC osmotic pump leptin 0.2 mg/kg/hour
Text: Leptin increases minute ventilation, stimulates control of breathing and reverses UAO during sleep in leptin deficient ob/ob mice as shown in Pho et al., Journal of Applied Physiology 120, 78-86 (2016); Yao et al., Sleep 39, 1097-106 (2016); and O'Donnell et al., American Journal of Respiratory & Critical Care Medicine 159, 1477-1484 (1999), the disclosures of which are incorporated herein in their entirety. As such, it was proposed that high doses of leptin also stimulate ventilation and control of breathing in lean C57BL/6J mice. […] In six mice, a subcutaneous osmotic pump (DURECT, Cupertino, Calif., USA) filled with saline was implanted and baseline minute ventilation (VE) and the hypoxic ventilatory response (HVR) were measured by exposing mice to room air and 10% O2. […] VE normalized to body weight and the hypoxic ventilatory response (HVR) was calculated as the ratio of [VE (10% O2)−VE (20.9% O2) to the change in FiO2 (ΔFiO2=10.9% between normoxia and hypoxia) and reported as ΔVE/ΔFiO2. Subsequently, a subcutaneous osmotic pump for leptin infusion (0.2 mg/kg/hour) was implanted and the HVR was measured. […]

[9] = Leptin detection in brain tissue by ELISA after IN administration; assay type: in vivo, mouse; settings: IN leptin 0.8 mg/kg in 1% BSA, 20 minutes, vs IN vehicle
Description: To determine the effect of intranasal (IN) leptin in the brain, leptin detection in brain tissue by ELISA was assessed after IN administration. In brief, male lean C57BL/6J mice (30 g of weight), were treated with IN leptin (24 μl) at 0.8 mg/kg in 1% BSA or 1% BSA and sacrificed 20 minutes later. Brains were extracted, then the olfactory bulbs, hypothalami and medullas were isolated, quick frozen in liquid nitrogen and stored at −80° C. For leptin level measurements, brain tissue was homogenized in 160 mM KCL, 25 mM HEPES, 0.2% Triton X-100 and protease inhibitors. Total protein concentrations were determined using a BioRad DC Protein kit and ELISA for leptin was performed with a Millipore kit.

[10] = system: LepR^b+ neurons in the dorsomedial hypothalamus (DMH); assay type: cell-based, mouse
[11] = system: STAT3 phosphorylation (pSTAT3) via LepR^b; test: Leptin signaling by STAT3 phosphorylation (pSTAT3) immunofluorescent staining of brain sections; assay type: in vivo, mouse; settings: DIO mice
[12] = SC leptin 120 μg/day for 3 days

Compound: N[C@H](CCCP(=O)(O)O)C(=O)O [APV, (2R)-amino-5-phosphonovaleric acid]
- photoexcitation-evoked excitatory post-synaptic currents in HGNs [1]: blunted, but not blocked

Compound: N#Cc1cc2c(cc1[N+](=O)[O-])=NC(=O)C(=O)N=2 [CNQX, 6-cyano-7-nitroquinoxaline-2,3-dione]
- photoexcitation-evoked excitatory post-synaptic currents in HGNs ([1]; 50 μM APV and 50 μM CNQX applied together): blunted, but not blocked

Compound: C[C@@H](NC(=O)[C@@H](N)Cc1ccc(O)cc1)C(=O)NCC(=O)N(C)[C@@H](Cc1ccccc1)C(=O)NCCO [DAMGO, [D-Ala^2, N-MePhe^4, Gly-ol]-enkephalin, reference compound]
- action potentials in HGNs associated with each burst [2]: 2-3 action potentials
- spontaneous excitatory post-synaptic currents (EPSCs) in HGNs [3]: rapidly depressed
- EPSC frequency in HGNs [3]: significantly reduced

Compound: CN1CC[C@]23c4c5ccc(O)c4O[C@H]2[C@@H](O)C=C[C@H]3[C@H]1C5 [morphine, reference compound]
- IFL prevalence (frequency of upper airway obstruction) (DIO C57BL/6J mice [4]; FIG. 3B experiment, DIO mice n=4, morphine 10 mg/kg): 39.6±9.3 % of all breaths
- maximal inspiratory flow (Vimax) during IFL (DIO C57BL/6J mice [4]; FIG. 3C, DIO mice n=4, morphine 10 mg/kg): decreasing
- minute ventilation during IFL (VE IFL) (DIO C57BL/6J mice [4]; FIG. 3D, DIO mice n=4, morphine 10 mg/kg): decreasing
- respiratory rate during NFL breathing (DIO C57BL/6J mice [4]; FIG. 3E experiment, morphine 10 mg/kg): decreased
- non-flow limited breathing (NFL), respiratory depression (DIO C57BL/6J mice [4]; FIG. 3E, DIO mice n=4, morphine 10 mg/kg): suppressed
- respiratory depression (minute ventilation, VE) (DIO C57BL/6J mice [4]; IP morphine 80 mg/kg, DIO mice): induced respiratory depression
- number of apneic events during NREM sleep (DIO C57BL/6J mice [4]; NREM sleep, n=9, morphine 10 mg/kg, baseline 13.9±3.7): 91.5±20.0
- frequency of upper airway obstruction (IFL breaths), NREM sleep (DIO C57BL/6J mice [4]; morphine 10 mg/kg, baseline 11.9±5.5%): 56.8±4.8 % of all breaths
- minute ventilation during obstructed (IFL) breathing, NREM sleep (DIO C57BL/6J mice [4]; n=5, morphine 10 mg/kg): significantly decreased
- maximal inspiratory flow (Vimax) during obstructed (IFL) breathing, NREM sleep (DIO C57BL/6J mice [4]; n=5, morphine 10 mg/kg, baseline 3.4±0.4): 2.3 ± 0.5 mL/min
- minute ventilation (VE), non-flow limited respiration, NREM sleep (DIO C57BL/6J mice [4]; n=9, morphine 10 mg/kg, baseline 1.2±0.1): 0.7 ± 0.1 mL/min/g
- inspiratory flow limitation (IFL) (DIO C57BL/6J mice [4]; sub-lethal IP morphine 80 mg/kg, DIO mice): induced severe inspiratory flow limitation

Compound: leptin
- plasma leptin levels [5]: did not increase
- ODI (number of oxyhemoglobin desaturations ≥4%/hour) (DIO C57BL/6J mice [6]): dramatic decrease
- maximal inspiratory flow (Vimax) during flow limited obstructed breathing (DIO C57BL/6J mice [6]): increased
- minute ventilation (VE) during flow limited obstructed breathing (DIO C57BL/6J mice [6]): increased
- non-flow limited breathing (DIO C57BL/6J mice [6]): increased
- action potentials in HGNs associated with each burst [2]: 3-4 action potentials
- IFL prevalence (frequency of upper airway obstruction) (DIO C57BL/6J mice [4]; mouse, in vivo): decreased
- apnea-hypopnea index (AHI) (DIO C57BL/6J mice [4]; mouse, in vivo): dramatically reduced
- frequency of upper airway obstruction (IFL breaths), NREM sleep (DIO C57BL/6J mice [4]; mouse, in vivo): decreased
- inspiratory flow limitation (IFL) (DIO C57BL/6J mice [4]; mouse, in vivo): markedly improved
- leptin effects on apneas, VE, IFL frequency, VImax and VE during IFL (DIO C57BL/6J mice [4]; mouse, in vivo): no longer significant
- maximal inspiratory flow (Vimax) during IFL (DIO C57BL/6J mice [4]; mouse, in vivo): increases
- maximal inspiratory flow (Vimax) during obstructed (IFL) breathing, NREM sleep (DIO C57BL/6J mice [4]; mouse, in vivo): reversals of morphine-induced reductions
- minute ventilation (VE), non-flow limited respiration, NREM sleep (DIO C57BL/6J mice [4]; mouse, in vivo): increase
- minute ventilation during IFL (VE IFL) (DIO C57BL/6J mice [4]; mouse, in vivo): increases
- minute ventilation during obstructed (IFL) breathing, NREM sleep (DIO C57BL/6J mice [4]; mouse, in vivo): reversals of morphine-induced reductions
- non-flow limited breathing (NFL), respiratory depression (DIO C57BL/6J mice [4]; mouse, in vivo): prevented
- number of apneic events during NREM sleep (DIO C57BL/6J mice [4]; mouse, in vivo): decreased
- respiratory depression (minute ventilation, VE) (DIO C57BL/6J mice [4]; mouse, in vivo): prevented
- respiratory rate (DIO C57BL/6J mice [4]; mouse, in vivo): increasing
- respiratory rate during NFL breathing (DIO C57BL/6J mice [4]; mouse, in vivo): did not change
- tidal volume (VT) (DIO C57BL/6J mice [4]; mouse, in vivo): increasing
- tidal volume during NFL breathing (DIO C57BL/6J mice [4]; mouse, in vivo): 0.44±0.03
- increase in blood pressure at night (lean C57BL/6J mice [7]; [12]): 16 mm Hg
- increase in blood pressure during the day (9 am-9 pm, light phase) (lean C57BL/6J mice [7]; [12]): 13 mm Hg
- leptin-mediated increase in blood pressure after carotid body (CB) denervation (lean C57BL/6J mice [7]; SC leptin 120 μg/day, not abolished by sham surgery): completely abolished
- hypoxic ventilatory response (HVR, ΔVE/ΔFiO2) (lean C57BL/6J mice [8]; 10% O2 vs room air, saline pump 0.23): 0.31 ml/minutes/grams/ΔFiO2
- minute ventilation (VE) (lean C57BL/6J mice [8]; wakefulness, saline pump 1.1): 1.5 ml/minutes/grams
- leptin levels in the hypothalamus [9]: strong increase
- leptin levels in the medulla [9]: significantly increased
- leptin levels in the olfactory bulb [9]: significantly increased
- spontaneous excitatory post-synaptic currents (EPSCs) in HGNs [3]: successfully reversed
- EPSC frequency in HGNs [3]: restored
- effect on LepR^b+ neurons (firing) [10]: excited
- signaling (STAT3 phosphorylation) in dorsal medulla, RVLM, CC, DMV, NA, XII ([11]; IN leptin single dose, one hour): increased
- number of pSTAT3-positive cells in the hypothalamus and medulla ([11]; IN leptin vs IP leptin and vehicle groups): highest
- signaling (STAT3 phosphorylation) in dorsal medulla or RVLM ([11]; IP leptin single dose, one hour): no effect
